Experimental data: patent US20210045385A1, “PYRIDAZINONE-SUBSTITUTED KETOXIMES AS HERBICIDES” (FMC Corporation, priority 2018, published 2021)

Experiments:
Type in all cases: in vivo
[1] = test system: barnyardgrass (Echinochloa crus-galli); experiment: Test A preemergence, visual plant response rating; details: for Barnyardgrass plant response rating: 125 g ai/ha, preemergence, 0 to 100 scale, 0 no effect, 100 complete control; for Barnyardgrass plant response rating (0 to 100 scale): 500 g ai/ha Preemergence, approx. 10 days
How it was run: (§1)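 Greenhouse pot test in loam–sand soil mix: compound in a surfactant-containing non-phytotoxic solvent applied preemergence (directed soil spray) or postemergence (one- to two-leaf plants, 2–10 cm). Injury scored visually after ~10 days, 0–100.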

[2] = test system: ragweed (common ragweed, Ambrosia elatior); experiment: Test A preemergence, visual plant response rating; details: for Ragweed plant response rating: 125 g ai/ha, preemergence, 0 to 100 scale, 0 no effect, 100 complete control; for Ragweed plant response rating (0 to 100 scale): 500 g ai/ha Preemergence, approx. 10 days
How it was run: as §1

[3] = test system: Italian ryegrass (Lolium multiflorum); experiment: Test A preemergence, visual plant response rating; details: for Ryegrass, Italian plant response rating: 125 g ai/ha, preemergence, 0 to 100 scale, 0 no effect, 100 complete control; for Ryegrass, Italian plant response rating (0 to 100 scale): 500 g ai/ha Preemergence, approx. 10 days
How it was run: as §1

kochia (Kochia scoparia) [4] = experiment: Test A preemergence, visual plant response rating; details: for Kochia plant response rating: 125 g ai/ha, preemergence, 0 to 100 scale, 0 no effect, 100 complete control; for Kochia plant response rating (0 to 100 scale): 500 g ai/ha Preemergence, approx. 10 days
How it was run: as §1

[5] = test system: foxtail, giant (giant foxtail, Setaria faberii); experiment: Test A preemergence, visual plant response rating; details: for Foxtail, Giant plant response rating: 125 g ai/ha, preemergence, 0 to 100 scale, 0 no effect, 100 complete control; for Foxtail, Giant plant response rating (0 to 100 scale): 500 g ai/ha Preemergence, approx. 10 days
How it was run: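 Compared with untreated controls, treated plants received a visual injury score on a 0–100 scale around 10 days after application. The compound, in a non-phytotoxic solvent with surfactant, was given as a preemergence soil spray or postemergence at the one- to two-leaf stage.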

[6] = test system: pigweed (Amaranthus retroflexus); experiment: Test A preemergence, visual plant response rating; details: for Pigweed plant response rating: 125 g ai/ha, preemergence, 0 to 100 scale, 0 no effect, 100 complete control; for Pigweed plant response rating (0 to 100 scale): 500 g ai/ha Preemergence, approx. 10 days
How it was run: as §1

[7] = test system: barnyardgrass (Echinochloa crus-galli); experiment: Test A postemergence, visual plant response rating; details: for Barnyardgrass plant response rating (0 to 100 scale): 500 g ai/ha, postemergence, 0 is no effect, 100 is complete control; for Barnyardgrass plant response rating: Postemergence, 125 g ai/ha, 0 to 100 scale (0 no effect, 100 complete control)
Text: (§2) Seeds of plant species selected from barnyardgrass (Echinochloa crus-galli), kochia (Kochia scoparia), ragweed (common ragweed, Ambrosia elatior), Italian ryegrass (Lolium multiflorum), foxtail, giant (giant foxtail, Setaria faberii), foxtail, green (green foxtail, Setaria viridis), and pigweed (Amaranthus retroflexus) were planted into a blend of loam soil and sand and treated preemergence with a directed soil spray using test chemicals formulated in a non-phytotoxic solvent mixture which included a surfactant.
(§3) At the same time, plants selected from these weed species and also wheat (Triticum aestivum), corn (Zea mays), blackgrass (Alopecurus myosuroides), and galium (catchweed bedstraw, Galium aparine) were planted in pots containing the same blend of loam soil and sand and treated with postemergence applications of test chemicals formulated in the same manner. Plants ranged in height from 2 to 10 cm and were in the one- to two-leaf stage for the postemergence treatment. Treated plants and untreated controls were maintained in a greenhouse for approximately 10 days, after which time all treated plants were compared to untreated controls and visually evaluated for injury. Plant response ratings, summarized in Table A, are based on a 0 to 100 scale where 0 is no effect and 100 is complete control. A dash (-) response means no test result.

[8] = test system: blackgrass (Alopecurus myosuroides); experiment: Test A postemergence, visual plant response rating; details: for Blackgrass plant response rating (0 to 100 scale): 500 g ai/ha, postemergence, 0 is no effect, 100 is complete control; for Blackgrass plant response rating: Postemergence, 125 g ai/ha, 0 to 100 scale (0 no effect, 100 complete control)
Text: as §2, §3

[9] = test system: ragweed (common ragweed, Ambrosia elatior); experiment: Test A postemergence, visual plant response rating; details: for Ragweed plant response rating (0 to 100 scale): 500 g ai/ha, postemergence, 0 is no effect, 100 is complete control; for Ragweed plant response rating: Postemergence, 125 g ai/ha, 0 to 100 scale (0 no effect, 100 complete control)
Text: as §2, §3

[10] = test system: Italian ryegrass (Lolium multiflorum); experiment: Test A postemergence, visual plant response rating; details: for Ryegrass, Italian plant response rating: 125 g ai/ha, 0 to 100 scale (0 no effect, 100 complete control)
Text: as §2, §3

kochia (Kochia scoparia) [11] = experiment: Test A postemergence, visual plant response rating; details: for Kochia plant response rating (0 to 100 scale): 500 g ai/ha, postemergence, 0 is no effect, 100 is complete control; for Kochia plant response rating: Postemergence, 125 g ai/ha, 0 to 100 scale (0 no effect, 100 complete control)
Text: as §2, §3

[12] = test system: galium (catchweed bedstraw, Galium aparine); experiment: Test A postemergence, visual plant response rating; details: for Galium plant response rating (0 to 100 scale): 500 g ai/ha, postemergence, 0 is no effect, 100 is complete control; for Galium plant response rating: Postemergence, 125 g ai/ha, 0 to 100 scale (0 no effect, 100 complete control)
Text: as §2, §3

[13] = test system: wheat (Triticum aestivum); experiment: Test A postemergence, visual plant response rating; details: for Wheat plant response rating: 0 to 100 scale (0 no effect, 100 complete control)
Text: as §2, §3

[14] = test system: foxtail, giant (giant foxtail, Setaria faberii); experiment: Test A postemergence, visual plant response rating; details: for Foxtail, Giant plant response rating (0 to 100 scale): 500 g ai/ha, postemergence, 0 is no effect, 100 is complete control; for Foxtail, Giant plant response rating: Postemergence, 125 g ai/ha, 0 to 100 scale (0 no effect, 100 complete control)
Text: as §2, §3

[15] = test system: pigweed (Amaranthus retroflexus); experiment: Test A postemergence, visual plant response rating; details: for Pigweed plant response rating (0 to 100 scale): 500 g ai/ha, postemergence, 0 is no effect, 100 is complete control; for Pigweed plant response rating: Postemergence, 125 g ai/ha, 0 to 100 scale (0 no effect, 100 complete control)
Text: as §2, §3

corn (Zea mays) = experiment: Test A postemergence, visual plant response rating; details: for Corn plant response rating (0 to 100 scale): 500 g ai/ha, postemergence, 0 is no effect, 100 is complete control; for Corn plant response rating: Postemergence, 125 g ai/ha, 0 to 100 scale (0 no effect, 100 complete control)
Text: as §2, §3

[16] = test system: barnyardgrass (Echinochloa crus-galli); experiment: Test B flooded paddy test, visual plant response rating; details: 250 g ai/ha, Flood, applied to paddy water, 2-leaf stage, evaluated after 13 to 15 days
How it was run: (§4)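 Compounds added straight into paddy water of pots flooded to 3 cm, with 2-leaf-stage plants of the four species; water level held throughout.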

[17] = test system: sedge, umbrella (small-flower umbrella sedge, Cyperus difformis); experiment: as above; details: 250 g ai/ha, Flood, applied to paddy water, 2-leaf stage, evaluated after 13 to 15 days
How it was run: as §4

rice (Oryza sativa) = experiment: as above; details: 250 g ai/ha, Flood, applied to paddy water, 2-leaf stage, evaluated after 13 to 15 days
How it was run: as §4

[18] = test system: ducksalad (Heteranhera limosa); experiment: as above; details: 250 g ai/ha, Flood, applied to paddy water, 2-leaf stage, evaluated after 13 to 15 days
How it was run: as §4

[19] = 500 g ai/ha, postemergence, 0 is no effect, 100 is complete control

SMILES	Barnyardgrass plant response rating [1]	Barnyardgrass plant response rating (0 to 100 scale) [1]	Ragweed plant response rating [2]	Ragweed plant response rating (0 to 100 scale) [2]	Ryegrass, Italian plant response rating [3]	Ryegrass, Italian plant response rating (0 to 100 scale) [3]	Kochia plant response rating (kochia (Kochia scoparia) [4])	Kochia plant response rating (0 to 100 scale) (kochia (Kochia scoparia) [4])	Foxtail, Giant plant response rating [5]	Foxtail, Giant plant response rating (0 to 100 scale) [5]	Pigweed plant response rating [6]	Pigweed plant response rating (0 to 100 scale) [6]	Barnyardgrass plant response rating (0 to 100 scale) [7]	Barnyardgrass plant response rating [7]	Blackgrass plant response rating (0 to 100 scale) [8]	Blackgrass plant response rating [8]	Ragweed plant response rating (0 to 100 scale) [9]	Ragweed plant response rating [9]	Ryegrass, Italian plant response rating (0 to 100 scale) [10, 19]	Kochia plant response rating (0 to 100 scale) (kochia (Kochia scoparia) [11])	other results
CON=C(c1ccc(C)s1)c1c(O)c(C)nn(C)c1=O (mixture of isomers) [Compound 144]	0	0	0	0	0	0	0	0	0	0	0	0	0	0	0	0	30	0	0	0	Ryegrass, Italian plant response rating (0 to 100 scale) ([10]; Postemergence, rate not given, approx. 10 days): 0; Kochia plant response rating (kochia (Kochia scoparia) [11]): 0; Galium plant response rating (0 to 100 scale) [12]: 30; Galium plant response rating [12]: 0; Wheat plant response rating ([13]; Postemergence, 500 g ai/ha): 0; Wheat plant response rating (0 to 100 scale) ([13]; Postemergence, approx. 10 days): 0; Foxtail, Giant plant response rating (0 to 100 scale) [14]: 0; Foxtail, Giant plant response rating [14]: 0; Pigweed plant response rating (0 to 100 scale) [15]: 10; Pigweed plant response rating [15]: 0; Corn plant response rating (0 to 100 scale) (corn (Zea mays)): 0; Corn plant response rating (corn (Zea mays)): 0; Plant response rating, Barnyardgrass (0 to 100 scale, 0 is no effect, 100 is complete control) [16]: 0; Plant response rating, Sedge, Umbrella (0 to 100 scale, 0 is no effect, 100 is complete control) [17]: 0; Plant response rating, Rice (0 to 100 scale, 0 is no effect, 100 is complete control) (rice (Oryza sativa)): 0; Plant response rating, Ducksalad (0 to 100 scale, 0 is no effect, 100 is complete control) [18]: 0
CON=C(c1c(O)c(C)nn(C)c1=O)c1csc2ccccc12 (single isomer, unassigned) [Compound 45]	0	0	10	40	0	10	0	50	0	0	0	0	0	0	20	0	70	30	20	0	Ryegrass, Italian plant response rating ([10]; Postemergence): 0; Kochia plant response rating (kochia (Kochia scoparia) [11]): 0; Galium plant response rating (0 to 100 scale) [12]: 70; Galium plant response rating [12]: 50; Wheat plant response rating (0 to 100 scale) [13, 19]: 0; Wheat plant response rating ([13]; Postemergence, 125 g ai/ha): 0; Foxtail, Giant plant response rating (0 to 100 scale) [14]: 0; Foxtail, Giant plant response rating [14]: 0; Pigweed plant response rating (0 to 100 scale) [15]: 10; Pigweed plant response rating [15]: 0; Corn plant response rating (0 to 100 scale) (corn (Zea mays)): 0; Corn plant response rating (corn (Zea mays)): 0; Plant response rating, Barnyardgrass (0 to 100 scale, 0 is no effect, 100 is complete control) [16]: 0; Plant response rating, Sedge, Umbrella (0 to 100 scale, 0 is no effect, 100 is complete control) [17]: 0; Plant response rating, Rice (0 to 100 scale, 0 is no effect, 100 is complete control) (rice (Oryza sativa)): 0; Plant response rating, Ducksalad (0 to 100 scale, 0 is no effect, 100 is complete control) [18]: 0
CON=C(c1c(O)c(C)nn(C)c1=O)c1csc2ccccc12 (single isomer, unassigned) [Compound 46]	0	0	20	50	0	0	0	30	0	0	0	10	0	0	0	0	70	40	10	0	Ryegrass, Italian plant response rating ([10]; Postemergence): 10; Kochia plant response rating (kochia (Kochia scoparia) [11]): 0; Galium plant response rating (0 to 100 scale) [12]: 60; Galium plant response rating [12]: 30; Wheat plant response rating (0 to 100 scale) [13, 19]: 0; Wheat plant response rating ([13]; Postemergence, 125 g ai/ha): 0; Foxtail, Giant plant response rating (0 to 100 scale) [14]: 0; Foxtail, Giant plant response rating [14]: 0; Pigweed plant response rating (0 to 100 scale) [15]: 20; Pigweed plant response rating [15]: 10; Corn plant response rating (0 to 100 scale) (corn (Zea mays)): 0; Corn plant response rating (corn (Zea mays)): 0; Plant response rating, Barnyardgrass (0 to 100 scale, 0 is no effect, 100 is complete control) [16]: 0; Plant response rating, Sedge, Umbrella (0 to 100 scale, 0 is no effect, 100 is complete control) [17]: 0; Plant response rating, Rice (0 to 100 scale, 0 is no effect, 100 is complete control) (rice (Oryza sativa)): 0; Plant response rating, Ducksalad (0 to 100 scale, 0 is no effect, 100 is complete control) [18]: 0
CON=C(c1c(O)c(C)nn(C)c1=O)c1cccc2ccsc12 (single isomer, unassigned) [Compound 47]	0	50	100	100	10	70	0	90	20	90	20	80	20	30	30	20	90	80	70	30	Ryegrass, Italian plant response rating ([10]; Postemergence): 0; Kochia plant response rating (kochia (Kochia scoparia) [11]): 10; Galium plant response rating (0 to 100 scale) [12]: 100; Galium plant response rating [12]: 70; Wheat plant response rating (0 to 100 scale) [13, 19]: 0; Wheat plant response rating ([13]; Postemergence, 125 g ai/ha): 0; Foxtail, Giant plant response rating (0 to 100 scale) [14]: 70; Foxtail, Giant plant response rating [14]: 30; Pigweed plant response rating (0 to 100 scale) [15]: 90; Pigweed plant response rating [15]: 60; Corn plant response rating (0 to 100 scale) (corn (Zea mays)): 20; Corn plant response rating (corn (Zea mays)): 0; Plant response rating, Barnyardgrass (0 to 100 scale, 0 is no effect, 100 is complete control) [16]: 0; Plant response rating, Sedge, Umbrella (0 to 100 scale, 0 is no effect, 100 is complete control) [17]: 0; Plant response rating, Rice (0 to 100 scale, 0 is no effect, 100 is complete control) (rice (Oryza sativa)): 0; Plant response rating, Ducksalad (0 to 100 scale, 0 is no effect, 100 is complete control) [18]: 0
